≈ marks a conversion by molar mass, not a printed value. Where “and” joins values, the source holds several entries; their conditions need not be identical. Equal values may be shown once. Read-outs that look alike come from different tables or passages of the source.
What was measured:
[1] = tested on: Mycobacterium smegmatis DSM 43465 (ATCC 607); assay: Microdilution broth, modified Microplate Alamar Blue Assay, whole cell growth inhibition; type: cell-based; conditions: Mycolicibacterium smegmatis, read-out: MIC Mycobacterium smegmatis
[2] = tested on: Acinetobacter baumanii ATCC 19606, DSM 30007; assay: Antibacterial microdilution broth method (EUCAST); type: cell-based; conditions: Acinetobacter baumannii
[3] = tested on: Candida krusei ATCC 6258, CCM 8271; assay: Antifungal microdilution broth method (EUCAST); type: cell-based; conditions: Pichia kudriavzevii, read-out: MIC CK
[4] = tested on: Staphylococcus epidermidis ATCC 12228, CCM 4418; assay: Antibacterial microdilution broth method (EUCAST); type: cell-based; conditions: read-out: MIC SE
[5] = tested on: Mycobacterium aurum DSM 43999 (ATCC 23366); assay: Microdilution broth, modified Microplate Alamar Blue Assay, whole cell growth inhibition; type: cell-based; conditions: Mycolicibacterium aurum, read-out: MIC Mycobacterium aurum
[6] = tested on: Pseudomonas aeruginosa ATCC 27853, CCM 3955; assay: Antibacterial microdilution broth method (EUCAST); type: cell-based; conditions: read-out: MIC PA
[7] = tested on: Aspergillus fumigatus ATCC 204305; assay: Antifungal microdilution broth method (EUCAST); type: cell-based; conditions: read-out: MIC AF
[8] = tested on: Trichophyton interdigitale ATCC 9533, CCM 8377; assay: Antifungal microdilution broth method (EUCAST); type: cell-based; conditions: read-out: MIC TI
[9] = tested on: Staphylococcus aureus methicillin resistant ATCC 43300, CCM 4750; assay: microbe, parasite or virus in culture; type: cell-based; conditions: ATCC 43300 / CCM 4750 / MRSA, read-out: MIC MRSA
[10] = tested on: Mycobacterium tuberculosis H37Ra ITM-M006710 (ATCC 9431); assay: Microdilution broth, modified Microplate Alamar Blue Assay, whole cell growth inhibition; type: cell-based; conditions: Mycobacterium tuberculosis, read-out: MIC Mtb H37Ra
[11] = tested on: Absidia corymbifera CCM 8077 (Lichtheimia corymbifera); assay: Antifungal microdilution broth method (EUCAST); type: cell-based; conditions: read-out: MIC AC
[12] = tested on: Escherichia coli ATCC 25922, CCM 3954; assay: Antibacterial microdilution broth method (EUCAST); type: cell-based; conditions: read-out: MIC EC
[13] = tested on: Klebsiella pneumoniae ATCC 10031, CCM 4415; assay: Antibacterial microdilution broth method (EUCAST)
[14] = tested on: Enterococcus faecalis ATCC 29212, CCM 4224; assay: Antibacterial microdilution broth method (EUCAST); type: cell-based; conditions: read-out: MIC EF
[15] = tested on: Candida tropicalis ATCC 750, CCM 8264; assay: Antifungal microdilution broth method (EUCAST); type: cell-based; conditions: read-out: MIC CT
[16] = tested on: Candida parapsilosis ATCC 22019, CCM 8260; assay: Antifungal microdilution broth method (EUCAST); type: cell-based; conditions: Lodderomyces parapsilosis, read-out: MIC CP
[17] = tested on: Staphylococcus aureus spp.aureus ATCC 29213, CCM 4223; assay: Antibacterial microdilution broth method (EUCAST); type: cell-based; conditions: read-out: MIC SA
HepG2 cells = assay: HepG2 cytotoxicity, CellTiter 96 (MTS) assay; type: cell-based, human; conditions: for IC50: Homo sapiens, HepG2, 24 h, read-out: HepG2 IC50
[18] = tested on: Aspergillus flavus CCM 8363; assay: Antifungal microdilution broth method (EUCAST); type: cell-based; conditions: read-out: MIC AFla
[19] = tested on: Candida albicans ATCC 24433, CCM 8320; assay: Antifungal microdilution broth method (EUCAST); type: cell-based; conditions: read-out: MIC CA
[20] = in vitro, Middlebrook 7H9 broth, resazurin

In the case of `CCCCNc1cnc(C(=O)Nc2ccc(C)cc2)cn1` [Compound 4b, 5-(Butylamino)-N-(p-tolyl)pyrazine-2-carboxamide], the MIC [1] is reported as ≥ 250 µg/mL, the MIC ([2]; 24h) is reported as > 125 µM and the MIC ([2]; 48h) is reported as > 125 µM. For the same compound, the MIC ([3]; 24 h) was > 125 µM, the MIC ([3]; 48 h) was > 125 µM and the MIC ([4]; 24 h) was > 125 µM. The MIC ([4]; 48 h) was > 125 µM, the MIC [5] was ≥ 250 µg/mL and the MIC ([6]; 72 h) was > 125 µM. For the same compound, the MIC ([6]; 120 h) was > 125 µM, the MIC ([7]; ATCC204305, 24 h) was > 125 µM and the MIC ([7]; ATCC204305, 48 h) was > 125 µM. The MIC ([8]; 72 h) was > 125 µM, the MIC ([8]; 120 h) was > 125 µM and the MIC ([9]; 24 h) was > 125 µM. For the same compound, the MIC ([9]; 48 h) was > 125 µM, the MIC [10, 20] was ≥ 250 µg/mL and the MIC ([11]; CCM8077, 24 h) was > 125 µM. The MIC ([11]; CCM8077, 48 h) was > 125 µM, the MIC ([12]; 24 h) was > 125 µM and the MIC ([12]; 48 h) was > 125 µM. For the same compound, the “MIC KP” value ([13]; 24h) was > 125 µM, the “MIC KP” value ([13]; 48h) was > 125 µM and the melting point was 162.6 to 163.6 °C. The MIC ([14]; 24 h) was > 125 µM, the MIC ([14]; 48 h) was > 125 µM and the MIC ([15]; 24 h) was > 125 µM. The MIC ([15]; 48 h) was > 125 µM, the MIC ([16]; 24 h) was > 125 µM and the MIC ([16]; 48 h) was > 125 µM. For the same compound, the MIC ([17]; 24 h) was > 125 µM, the MIC ([17]; 48 h) was > 125 µM and the IC50 (HepG2 cells) was > 50 µM. For the same compound, the MIC ([18]; CCM8363, 24 h) was > 125 µM, the MIC ([18]; CCM8363, 48 h) was > 125 µM and the MIC ([19]; 24 h) was > 125 µM. The MIC ([19]; 48 h) was > 125 µM.

In the case of `CCCCCNc1cnc(C(=O)Nc2ccc(C)cc2)cn1` [Compound 4c, 5-(Pentylamino)-N-(p-tolyl)pyrazine-2-carboxamide], the MIC [1] is reported as ≥ 500 µg/mL, the MIC ([2]; 24h) is reported as > 500 µM and the MIC ([2]; 48h) is reported as > 500 µM. For the same compound, the MIC ([3]; 24 h) was > 125 µM, the MIC ([3]; 48 h) was > 125 µM and the MIC ([4]; 24 h) was > 500 µM. The MIC ([4]; 48 h) was > 500 µM, the MIC [5] was ≥ 500 µg/mL and the MIC ([6]; 72 h) was > 500 µM. For the same compound, the MIC ([6]; 120 h) was > 500 µM, the MIC ([7]; ATCC204305, 24 h) was > 125 µM and the MIC ([7]; ATCC204305, 48 h) was > 125 µM. The MIC ([8]; 72 h) was > 125 µM, the MIC ([8]; 120 h) was > 125 µM and the MIC ([9]; 24 h) was > 500 µM. For the same compound, the MIC ([9]; 48 h) was > 500 µM, the MIC [10, 20] was ≥ 500 µg/mL and the MIC ([11]; CCM8077, 24 h) was > 125 µM. The MIC ([11]; CCM8077, 48 h) was > 125 µM, the MIC ([12]; 24 h) was > 500 µM and the MIC ([12]; 48 h) was > 500 µM. For the same compound, the “MIC KP” value ([13]; 24h) was > 500 µM, the “MIC KP” value ([13]; 48h) was > 500 µM and the melting point was 155.9 to 156.6 °C. For the same compound, the MIC ([14]; 24 h) was > 500 µM, the MIC ([14]; 48 h) was > 500 µM and the MIC ([15]; 24 h) was > 125 µM. For the same compound, the MIC ([15]; 48 h) was > 125 µM, the MIC ([16]; 24 h) was > 125 µM and the MIC ([16]; 48 h) was > 125 µM. The MIC ([17]; 24 h) was > 500 µM, the MIC ([17]; 48 h) was > 500 µM and the IC50 (HepG2 cells) was > 25 µM. For the same compound, the MIC ([18]; CCM8363, 24 h) was > 125 µM, the MIC ([18]; CCM8363, 48 h) was > 125 µM and the MIC ([19]; 24 h) was > 125 µM. For the same compound, the MIC ([19]; 48 h) was > 125 µM.

With `CCCCCCCCNc1cnc(C(=O)Nc2ccc(C)cc2)cn1` [Compound 4f, 5-(octylamino)-N-(p-tolyl)pyrazine-2-carboxamide] the MIC [1] was ≥ 250 µg/mL, the MIC ([2]; 24h) was > 125 µM and the MIC ([2]; 48h) was > 125 µM. For the same compound, the MIC ([3]; 24 h) was > 125 µM, the MIC ([3]; 48 h) was > 125 µM and the MIC ([4]; 24 h) was > 125 µM. For the same compound, the MIC ([4]; 48 h) was > 125 µM, the MIC [5] was ≥ 250 µg/mL and the MIC ([6]; 72 h) was > 125 µM. For the same compound, the MIC ([6]; 120 h) was > 125 µM, the MIC ([7]; ATCC204305, 24 h) was > 125 µM and the MIC ([7]; ATCC204305, 48 h) was > 125 µM. For the same compound, the MIC ([8]; 72 h) was > 125 µM, the MIC ([8]; 120 h) was > 125 µM and the MIC ([9]; 24 h) was > 125 µM. For the same compound, the MIC ([9]; 48 h) was > 125 µM, the MIC [10, 20] was ≥ 250 µg/mL and the MIC ([11]; CCM8077, 24 h) was > 125 µM. The MIC ([11]; CCM8077, 48 h) was > 125 µM, the MIC ([12]; 24 h) was > 125 µM and the MIC ([12]; 48 h) was > 125 µM. The “MIC KP” value ([13]; 24h) was > 125 µM, the “MIC KP” value ([13]; 48h) was > 125 µM and the melting point was 155 to 156 °C. For the same compound, the MIC ([14]; 24 h) was > 125 µM, the MIC ([14]; 48 h) was > 125 µM and the MIC ([15]; 24 h) was > 125 µM. For the same compound, the MIC ([15]; 48 h) was > 125 µM, the MIC ([16]; 24 h) was > 125 µM and the MIC ([16]; 48 h) was > 125 µM. The MIC ([17]; 24 h) was > 125 µM, the MIC ([17]; 48 h) was > 125 µM and the IC50 (HepG2 cells) was > 25 µM. The MIC ([18]; CCM8363, 24 h) was > 125 µM, the MIC ([18]; CCM8363, 48 h) was > 125 µM and the MIC ([19]; 24 h) was > 125 µM. For the same compound, the MIC ([19]; 48 h) was > 125 µM.

With `CCCNc1cnc(C(=O)Nc2ccc(CC)cc2)cn1` [Compound 5a, N-(4-ethylphenyl)-5-(propylamino)pyrazine-2-carboxamide] the MIC [1] was 7.81 µg/mL (≈ 27.5 µM), the MIC ([2]; 24h) was > 125 µM and the MIC ([2]; 48h) was > 125 µM. The MIC ([3]; 24 h) was > 125 µM, the MIC ([3]; 48 h) was > 125 µM and the MIC ([4]; 24 h) was > 125 µM. The MIC ([4]; 48 h) was > 125 µM, the MIC [5] was ≥ 500 µg/mL and the MIC ([6]; 72 h) was > 125 µM. The MIC ([6]; 120 h) was > 125 µM, the MIC ([7]; ATCC204305, 24 h) was > 125 µM and the MIC ([7]; ATCC204305, 48 h) was > 125 µM. The MIC ([8]; 72 h) was > 125 µM, the MIC ([8]; 120 h) was > 125 µM and the MIC ([9]; 24 h) was > 125 µM. The MIC ([9]; 48 h) was > 125 µM, the MIC ([10]; MIC converted to µM) was 27.5 µM and the MIC [10, 20] was 7.81 µg/mL. For the same compound, the MIC ([11]; CCM8077, 24 h) was > 125 µM, the MIC ([11]; CCM8077, 48 h) was > 125 µM and the MIC ([12]; 24 h) was > 125 µM. For the same compound, the MIC ([12]; 48 h) was > 125 µM, the “MIC KP” value ([13]; 24h) was > 125 µM and the “MIC KP” value ([13]; 48h) was > 125 µM. The melting point was 141.8 to 142.8 °C, the MIC ([14]; 24 h) was > 125 µM and the MIC ([14]; 48 h) was > 125 µM. For the same compound, the MIC ([15]; 24 h) was > 125 µM, the MIC ([15]; 48 h) was > 125 µM and the MIC ([16]; 24 h) was > 125 µM. The MIC ([16]; 48 h) was > 125 µM, the MIC ([17]; 24 h) was > 125 µM and the MIC ([17]; 48 h) was > 125 µM. The IC50 (HepG2 cells) was 495 µM, the “SI, selectivity index” value (HepG2 cells; IC50 (HepG2)/MIC against Mtb H37Ra (in µM)) was 18 and 18.01 and the MIC ([18]; CCM8363, 24 h) was > 125 µM. The MIC ([18]; CCM8363, 48 h) was > 125 µM, the MIC ([19]; 24 h) was > 125 µM and the MIC ([19]; 48 h) was > 125 µM.

Source: PMC7180572, “5-Alkylamino-N-phenylpyrazine-2-carboxamides: Design, Preparation, and Antimycobacterial Evaluation” (Molecules, 2020)
